Experimental data published in patent US20070128217A1 (priority 2003, published 2007).

Legend:
[1] = test system: control sera (pooled serum of ten healthy LUMC hospital workers; commercial negative donor pooled serum from the Dutch bloodbank); format: binding, human; parameters: Binding of Control serum LUMC to linear peptides / Binding of Control serum Blood-bank to linear peptides / Binding of Control serum LUMC to looped peptides / Binding of Control Serum Blood-Bank to Looped peptides / Binding of Control serum LUMC to linear peptides of the protein M of SARS-CoV Urbani / Binding of Control serum Blood-bank to linear peptides of the protein M of SARS-CoV Urbani / Binding of Control serum LUMC to looped peptides of the protein M of SARS-CoV Urbani / Binding of Control Serum Blood-Bank to Looped peptides of the protein M of SARS-CoV Urbani: unit not given here
[2] = test system: rabbit serum obtained by immunizing a rabbit with the SARS-CoV strain Frankfurt 1; format: binding; parameters: Binding of a rabbit serum to linear peptides / Binding of a rabbit serum to looped peptides / Rabbit serum linear peptides / Rabbit serum looped peptides / Binding of a rabbit serum to linear peptides of protein N of SARS-CoV Urbani (Rabbit serum linear peptides) / Binding of a rabbit serum to looped/cyclic peptides of protein N of SARS-CoV Urbani (Rabbit serum looped peptides): unit not given here
[3] = test system: antibodies in sera from SARS patients (sera 1a, 1b, 2, 6, 37, 62, London, SARS-yellow, SARS-green); format: binding, human; parameters: Binding of serum 6 to linear peptides of protein X1 of SARS-CoV Urbani / Binding of serum 37 to linear peptides of protein X1 of SARS-CoV Urbani / Binding of serum 6 to looped/cyclic peptide (PEPSCAN-ELISA) / Binding of serum 37 to looped/cyclic peptide (PEPSCAN-ELISA) / Binding of serum 37 to looped/cyclic peptides of protein X1 of SARS-CoV Urbani / Binding of serum 6 to linear peptides of protein X2 / Binding of serum 37 to linear peptides of protein X2 / Binding of serum 37 to looped/cyclic peptides of protein X2 of SARS-CoV Urbani / Binding of serum 6 to linear peptides of protein M of SARS-CoV Urbani / Binding of serum 37 to linear peptides of protein M of SARS-CoV Urbani / Binding of serum 6 to looped/cyclic peptides of protein M of SARS-CoV Urbani / Binding of serum 37 to looped/cyclic peptides of protein M of SARS-CoV Urbani / Binding of serum 6 to linear peptides of protein X3 of SARS-CoV Urbani / Binding of serum 37 to linear peptides of protein X3 of SARS-CoV Urbani / Binding of serum 37 to looped/cyclic peptides of protein X3 of SARS-CoV Urbani / Binding of serum 6 to linear peptides of protein X4 of SARS-CoV Urbani / Binding of serum 37 to linear peptides of protein X4 of SARS-CoV Urbani / Binding of serum 37 to looped/cyclic peptides of protein X4 of SARS-CoV Urbani / Binding of serum 6 to linear peptides of protein X5 of SARS-CoV Urbani / Binding of serum 37 to linear peptides of protein X5 of SARS-CoV Urbani / Binding of serum 37 to looped/cyclic peptides of protein X5 of SARS-CoV Urbani / Binding of serum 6 to linear peptides of protein N of SARS-CoV Urbani / Binding of serum 37 to linear peptides of protein N of SARS-CoV Urbani / Binding of serum 6 to linear peptide (PEPSCAN-ELISA) / Binding of serum 1a to looped/cyclic peptides of protein N of SARS-CoV Urbani / Binding of serum 1b to looped/cyclic peptides of protein N of SARS-CoV Urbani / Binding of serum 2 to looped/cyclic peptides of protein N of SARS-CoV Urbani / Binding of serum 6 to looped/cyclic peptides of protein N of SARS-CoV Urbani / Binding of serum 37 to looped/cyclic peptides of protein N of SARS-CoV Urbani / Binding of serum 62 to looped/cyclic peptides of protein N of SARS-CoV Urbani / Binding of serum London to looped/cyclic peptides of protein N of SARS-CoV Urbani / Binding of serum SARS-green to looped/cyclic peptides of protein N of SARS-CoV Urbani: unit not given here

FHLVDFQVTIAEILI
Binding of Control Serum Blood-Bank to Looped peptides of the protein X3 of SARS-CoV Urbani [1]: 0.7
Binding of Control serum Blood-bank to linear peptides of the protein X3 of SARS-CoV Urbani [1]: 0.8
Binding of Control serum LUMC to linear peptides of the protein X3 of SARS-CoV Urbani [1]: 0.6
Binding of Control serum LUMC to looped peptides of the protein X3 of SARS-CoV Urbani [1]: 0.8
Rabbit serum linear peptides [2]: 0.3
Rabbit serum looped peptides [2]: 0.5
Binding of serum 1a to linear peptides of protein X3 of SARS-CoV Urbani [3]: 0.8
Binding of serum 1a to looped/cyclic peptides of protein X3 of SARS-CoV Urbani [3]: 0.8
Binding of serum 1b to linear peptides of protein X3 of SARS-CoV Urbani [3]: 0.6
Binding of serum 1b to looped/cyclic peptides of protein X3 of SARS-CoV Urbani [3]: 0.4
Binding of serum 2 to linear peptides of protein X3 of SARS-CoV Urbani [3]: 0.7
Binding of serum 2 to looped/cyclic peptides of protein X3 of SARS-CoV Urbani [3]: 0.8
Binding of serum 6 to linear peptides of protein X3 of SARS-CoV Urbani [3]: 0.4
Binding of serum 6 to looped/cyclic peptides of protein X3 of SARS-CoV Urbani [3]: 0.5
Binding of serum 37 to linear peptides of protein X3 of SARS-CoV Urbani [3]: 0.7
Binding of serum 37 to looped/cyclic peptides of protein X3 of SARS-CoV Urbani [3]: 0.7
Binding of serum 62 to linear peptides of protein X3 of SARS-CoV Urbani [3]: 0.6
Binding of serum 62 to looped/cyclic peptides of protein X3 of SARS-CoV Urbani [3]: 0.7
Binding of serum London to linear peptides of protein X3 of SARS-CoV Urbani [3]: 0.6
Binding of serum London to looped/cyclic peptides of protein X3 of SARS-CoV Urbani [3]: 0.2
Binding of serum SARS-green to linear peptides of protein X3 of SARS-CoV Urbani [3]: 0.5
Binding of serum SARS-green to looped/cyclic peptides of protein X3 of SARS-CoV Urbani [3]: 0.3
Binding of serum SARS-yellow to linear peptides of protein X3 of SARS-CoV Urbani [3]: 0.9
Binding of serum SARS-yellow to looped/cyclic peptides of protein X3 of SARS-CoV Urbani [3]: 0.8

DTGIENATFFIFNKL
Binding of Control Serum Blood-Bank to Looped peptides [1]: 0.7
Binding of Control serum Blood-bank to linear peptides [1]: 0.6
Binding of Control serum LUMC to linear peptides [1]: 0.5
Binding of Control serum LUMC to looped peptides [1]: 0.9
Binding of a rabbit serum to linear peptides [2]: 0.1
Binding of a rabbit serum to looped peptides [2]: 0.6
Binding of serum 1a to linear peptides of protein X1 of SARS-CoV Urbani [3]: 0.7
Binding of serum 1a to looped/cyclic peptides of protein X1 of SARS-CoV Urbani [3]: 0.6
Binding of serum 1b to linear peptides of protein X1 of SARS-CoV Urbani [3]: 0.5
Binding of serum 1b to looped/cyclic peptides of protein X1 of SARS-CoV Urbani [3]: 0.5
Binding of serum 2 to linear peptides of protein X1 of SARS-CoV Urbani [3]: 0.5
Binding of serum 2 to looped/cyclic peptides of protein X1 of SARS-CoV Urbani [3]: 0.6
Binding of serum 6 to linear peptides of protein X1 of SARS-CoV Urbani [3]: 0.4
Binding of serum 6 to looped/cyclic peptides of protein X1 of SARS-CoV Urbani [3]: 0.2
Binding of serum 37 to linear peptides of protein X1 of SARS-CoV Urbani [3]: 0.7
Binding of serum 37 to looped/cyclic peptides of protein X1 of SARS-CoV Urbani [3]: 0.7
Binding of serum 62 to linear peptides of protein X1 of SARS-CoV Urbani [3]: 0.6
Binding of serum 62 to looped/cyclic peptides of protein X1 of SARS-CoV Urbani [3]: 0.6
Binding of serum London to linear peptides of protein X1 of SARS-CoV Urbani [3]: 0.4
Binding of serum London to looped/cyclic peptides of protein X1 of SARS-CoV Urbani [3]: 0.2
Binding of serum SARS-green to linear peptides of protein X1 of SARS-CoV Urbani [3]: 0.3
Binding of serum SARS-green to looped/cyclic peptides of protein X1 of SARS-CoV Urbani [3]: 0.4
Binding of serum SARS-yellow to linear peptides of protein X1 of SARS-CoV Urbani [3]: 0.4
Binding of serum SARS-yellow to looped/cyclic peptides of protein X1 of SARS-CoV Urbani [3]: 0.6

PLFLIVAALVFLILC
Binding of Control Serum Blood-Bank to Looped peptides [1]: 0.5
Binding of Control serum Blood-bank to linear peptides [1]: 0.4
Binding of Control serum LUMC to linear peptides [1]: 0.4
Binding of Control serum LUMC to looped peptides [1]: 0.5
Rabbit serum linear peptides [2]: 0.4
Rabbit serum looped peptides [2]: 0.0
Binding of serum 1a to linear peptides of protein X4 of SARS-CoV Urbani [3]: 0.5
Binding of serum 1a to looped/cyclic peptides of protein X4 of SARS-CoV Urbani [3]: 0.5
Binding of serum 1b to linear peptides of protein X4 of SARS-CoV Urbani [3]: 0.4
Binding of serum 1b to looped/cyclic peptides of protein X4 of SARS-CoV Urbani [3]: 0.1
Binding of serum 2 to linear peptides of protein X4 of SARS-CoV Urbani [3]: 0.3
Binding of serum 2 to looped/cyclic peptides of protein X4 of SARS-CoV Urbani [3]: 0.2
Binding of serum 6 to linear peptides of protein X4 of SARS-CoV Urbani [3]: 0.3
Binding of serum 6 to looped/cyclic peptides of protein X4 of SARS-CoV Urbani [3]: 0.5
Binding of serum 37 to linear peptides of protein X4 of SARS-CoV Urbani [3]: 0.6
Binding of serum 37 to looped/cyclic peptides of protein X4 of SARS-CoV Urbani [3]: 0.0
Binding of serum 62 to linear peptides of protein X4 of SARS-CoV Urbani [3]: 0.7
Binding of serum 62 to looped/cyclic peptides of protein X4 of SARS-CoV Urbani [3]: 0.1
Binding of serum London to linear peptides of protein X4 of SARS-CoV Urbani [3]: 0.6
Binding of serum London to looped/cyclic peptides of protein X4 of SARS-CoV Urbani [3]: 0.1
Binding of serum SARS-green to linear peptides of protein X4 of SARS-CoV Urbani [3]: 0.5
Binding of serum SARS-green to looped/cyclic peptides of protein X4 of SARS-CoV Urbani [3]: 0.2
Binding of serum SARS-yellow to linear peptides of protein X4 of SARS-CoV Urbani [3]: 0.4
Binding of serum SARS-yellow to looped/cyclic peptides of protein X4 of SARS-CoV Urbani [3]: 0.1

VQTCTPNVTINCQDP
Binding of Control Serum Blood-Bank to Looped peptides [1]: 0.6
Binding of Control serum Blood-bank to linear peptides [1]: 0.6
Binding of Control serum LUMC to linear peptides [1]: 0.5
Binding of Control serum LUMC to looped peptides [1]: 0.4
Rabbit serum linear peptides [2]: 0.5
Rabbit serum looped peptides [2]: 0.4
Binding of serum 1a to linear peptides of protein X5 of SARS-CoV Urbani [3]: 0.7
Binding of serum 1a to looped/cyclic peptides of protein X5 of SARS-CoV Urbani [3]: 0.6
Binding of serum 1b to linear peptides of protein X5 of SARS-CoV Urbani [3]: 0.8
Binding of serum 1b to looped/cyclic peptides of protein X5 of SARS-CoV Urbani [3]: 0.5
Binding of serum 2 to linear peptides of protein X5 of SARS-CoV Urbani [3]: 0.7
Binding of serum 2 to looped/cyclic peptides of protein X5 of SARS-CoV Urbani [3]: 0.7
Binding of serum 6 to linear peptides of protein X5 of SARS-CoV Urbani [3]: 0.8
Binding of serum 6 to looped/cyclic peptides of protein X5 of SARS-CoV Urbani [3]: 0.2
Binding of serum 37 to linear peptides of protein X5 of SARS-CoV Urbani [3]: 0.7
Binding of serum 37 to looped/cyclic peptides of protein X5 of SARS-CoV Urbani [3]: 0.6
Binding of serum 62 to linear peptides of protein X5 of SARS-CoV Urbani [3]: 0.8
Binding of serum 62 to looped/cyclic peptides of protein X5 of SARS-CoV Urbani [3]: 0.6
Binding of serum London to linear peptides of protein X5 of SARS-CoV Urbani [3]: 0.8
Binding of serum London to looped/cyclic peptides of protein X5 of SARS-CoV Urbani [3]: 0.3
Binding of serum SARS-green to linear peptides of protein X5 of SARS-CoV Urbani [3]: 0.7
Binding of serum SARS-green to looped/cyclic peptides of protein X5 of SARS-CoV Urbani [3]: 0.3
Binding of serum SARS-yellow to linear peptides of protein X5 of SARS-CoV Urbani [3]: 0.3
Binding of serum SARS-yellow to looped/cyclic peptides of protein X5 of SARS-CoV Urbani [3]: 0.3
